Laboratory results as given in ChEMBL document CHEMBL1687877, “Tripeptide motifs in biology: targets for peptidomimetic design” (J Med Chem, 2011).
Where a SMILES comes first, the peptide text is derived from it. Bridges are numbered along the chain shown (N, C = ends).

Assays:
[1] = Inhibition of bacterial DNA polymerase beta association with DNA polymerase alpha
[2] = Inhibition of bacterial DNA polymerase beta association with DNA polymerase delta
[3] = molecular target: D(2) dopamine receptor (Homo sapiens) (UniProt P14416); assay: Agonist activity at human dopamine D2 receptor at 10 nM; format: functional
Cadherin-2 = molecular target: T1, Cadherin-2 (Homo sapiens, UniProt P19022); assay: Antagonist activity at N-cadherin; format: functional
T1 sequence (P19022 whole entry): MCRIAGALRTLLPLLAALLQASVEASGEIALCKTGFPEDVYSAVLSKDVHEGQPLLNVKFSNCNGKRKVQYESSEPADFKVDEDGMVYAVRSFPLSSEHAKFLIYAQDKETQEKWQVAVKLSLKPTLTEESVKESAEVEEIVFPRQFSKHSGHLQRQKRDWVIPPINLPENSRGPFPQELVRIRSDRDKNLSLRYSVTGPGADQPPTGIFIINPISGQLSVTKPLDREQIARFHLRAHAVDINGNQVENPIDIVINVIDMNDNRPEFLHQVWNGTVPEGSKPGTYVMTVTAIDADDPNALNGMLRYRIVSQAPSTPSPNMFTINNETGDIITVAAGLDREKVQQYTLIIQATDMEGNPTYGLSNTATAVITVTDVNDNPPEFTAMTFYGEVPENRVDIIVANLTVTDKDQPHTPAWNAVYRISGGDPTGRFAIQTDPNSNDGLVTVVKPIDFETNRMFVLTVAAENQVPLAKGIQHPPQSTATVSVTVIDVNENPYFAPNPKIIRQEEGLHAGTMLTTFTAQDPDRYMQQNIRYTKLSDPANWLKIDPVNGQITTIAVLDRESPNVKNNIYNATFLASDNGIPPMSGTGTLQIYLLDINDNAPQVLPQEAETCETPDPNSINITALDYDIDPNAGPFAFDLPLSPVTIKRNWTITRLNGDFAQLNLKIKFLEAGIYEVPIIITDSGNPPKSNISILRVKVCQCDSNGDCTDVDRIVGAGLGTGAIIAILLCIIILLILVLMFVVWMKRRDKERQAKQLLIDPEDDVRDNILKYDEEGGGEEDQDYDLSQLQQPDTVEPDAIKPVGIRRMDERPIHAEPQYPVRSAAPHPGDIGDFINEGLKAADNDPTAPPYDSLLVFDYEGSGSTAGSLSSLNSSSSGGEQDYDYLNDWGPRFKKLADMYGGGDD

[4] = Induction of neurite outgrowth in rat CGN cells at 7.3 uM; format: functional

Sequence of D(2) dopamine receptor (Homo sapiens) (P14416 whole entry): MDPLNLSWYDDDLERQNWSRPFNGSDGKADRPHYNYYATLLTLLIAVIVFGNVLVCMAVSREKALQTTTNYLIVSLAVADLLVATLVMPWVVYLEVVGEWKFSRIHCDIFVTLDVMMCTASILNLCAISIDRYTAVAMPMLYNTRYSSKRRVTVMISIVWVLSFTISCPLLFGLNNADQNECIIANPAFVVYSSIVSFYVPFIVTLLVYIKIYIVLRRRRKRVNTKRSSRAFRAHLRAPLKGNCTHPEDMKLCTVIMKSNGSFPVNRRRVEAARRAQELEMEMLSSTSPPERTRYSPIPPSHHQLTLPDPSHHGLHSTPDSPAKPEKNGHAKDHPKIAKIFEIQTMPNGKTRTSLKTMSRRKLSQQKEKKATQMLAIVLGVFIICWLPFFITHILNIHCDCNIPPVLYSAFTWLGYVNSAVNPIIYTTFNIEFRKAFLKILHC

## CCC/C(=N\OCc1ccc(-c2ccccc2)cc1)C1C(=O)CC(C)(C2OCC(C)(C)CO2)OC1=O (configuration not stated)
[1]
  IC50: 270 µM
[2]
  IC50: 90 µM

## N[C@@H](Cc1ccccc1)C(=O)NC1C(=O)N(CC(=O)O)C[C@H]1CC(=O)O (some centres not stated)
[3]
  Activity: 146%

## CC(=O)N[C@H]1CSSC[C@@H](C(N)=O)NC(=O)[C@H](CC(=O)O)NC(=O)[C@H](C(C)C)NC(=O)[C@H](C)NC(=O)[C@H](Cc2cnc[nH]2)NC1=O (Ac-CHAVDC-NH2; disulfide 1-6)
Cadherin-2
  IC50: 5 µM

## CCC/C(=N\OC/C(Cl)=C/c1ccc(Cl)cc1)C1C(=O)CC(C)(C)CC1=O
[1]
  IC50: 350 µM
[2]
  IC50: 290 µM

## CC[C@H](C)[C@@H]1NC(=O)[C@H](CC(=O)O)NC(=O)[C@H](C(C)C)NC(=O)[C@H](C)NC(=O)[C@H](Cc2cnc[nH]2)NC(=O)CNC(=O)[C@H](CC(N)=O)NC(=O)[C@H]([C@@H](C)CC)NC(=O)[C@H](CC(=O)O)NC(=O)[C@H](C(C)C)NC(=O)[C@H](C)NC(=O)[C@H](Cc2cnc[nH]2)NC(=O)[C@@H](NC(C)=O)CSSC[C@@H](C(N)=O)NC1=O (Ac-CHAVDINGHAVDIC-NH2; disulfide 1-14)
[4]
  Activity: 70%
